Measurements from article PMC10167667, “Structural and functional characterization of a multi-domain GH92 α-1,2-mannosidase from Neobacillus novalis” (Acta Crystallographica. Section D, Structural Biology, 2023).

Target: T1, NnGH92 (Neobacillus novalis, UniProt A0A7R9KAR8)
T1 construct: full-length five-domain enzyme without native signal peptide (Ser34-Asp1411); Alcalase signal peptide then N-terminal HHHHHHPR tag kept; secreted from Bacillus subtilis
Experiment: X-ray crystal structure, […] Å
Type: binding
Details: co-crystallised with 5 mM mannoimidazole and 8 mM CaCl2, pH 6.6; catalytic active site (-1 subsite, Ca2+); second site in N-terminal CBM32 (chain A)

T1 sequence (A0A7R9KAR8 entry or part of it): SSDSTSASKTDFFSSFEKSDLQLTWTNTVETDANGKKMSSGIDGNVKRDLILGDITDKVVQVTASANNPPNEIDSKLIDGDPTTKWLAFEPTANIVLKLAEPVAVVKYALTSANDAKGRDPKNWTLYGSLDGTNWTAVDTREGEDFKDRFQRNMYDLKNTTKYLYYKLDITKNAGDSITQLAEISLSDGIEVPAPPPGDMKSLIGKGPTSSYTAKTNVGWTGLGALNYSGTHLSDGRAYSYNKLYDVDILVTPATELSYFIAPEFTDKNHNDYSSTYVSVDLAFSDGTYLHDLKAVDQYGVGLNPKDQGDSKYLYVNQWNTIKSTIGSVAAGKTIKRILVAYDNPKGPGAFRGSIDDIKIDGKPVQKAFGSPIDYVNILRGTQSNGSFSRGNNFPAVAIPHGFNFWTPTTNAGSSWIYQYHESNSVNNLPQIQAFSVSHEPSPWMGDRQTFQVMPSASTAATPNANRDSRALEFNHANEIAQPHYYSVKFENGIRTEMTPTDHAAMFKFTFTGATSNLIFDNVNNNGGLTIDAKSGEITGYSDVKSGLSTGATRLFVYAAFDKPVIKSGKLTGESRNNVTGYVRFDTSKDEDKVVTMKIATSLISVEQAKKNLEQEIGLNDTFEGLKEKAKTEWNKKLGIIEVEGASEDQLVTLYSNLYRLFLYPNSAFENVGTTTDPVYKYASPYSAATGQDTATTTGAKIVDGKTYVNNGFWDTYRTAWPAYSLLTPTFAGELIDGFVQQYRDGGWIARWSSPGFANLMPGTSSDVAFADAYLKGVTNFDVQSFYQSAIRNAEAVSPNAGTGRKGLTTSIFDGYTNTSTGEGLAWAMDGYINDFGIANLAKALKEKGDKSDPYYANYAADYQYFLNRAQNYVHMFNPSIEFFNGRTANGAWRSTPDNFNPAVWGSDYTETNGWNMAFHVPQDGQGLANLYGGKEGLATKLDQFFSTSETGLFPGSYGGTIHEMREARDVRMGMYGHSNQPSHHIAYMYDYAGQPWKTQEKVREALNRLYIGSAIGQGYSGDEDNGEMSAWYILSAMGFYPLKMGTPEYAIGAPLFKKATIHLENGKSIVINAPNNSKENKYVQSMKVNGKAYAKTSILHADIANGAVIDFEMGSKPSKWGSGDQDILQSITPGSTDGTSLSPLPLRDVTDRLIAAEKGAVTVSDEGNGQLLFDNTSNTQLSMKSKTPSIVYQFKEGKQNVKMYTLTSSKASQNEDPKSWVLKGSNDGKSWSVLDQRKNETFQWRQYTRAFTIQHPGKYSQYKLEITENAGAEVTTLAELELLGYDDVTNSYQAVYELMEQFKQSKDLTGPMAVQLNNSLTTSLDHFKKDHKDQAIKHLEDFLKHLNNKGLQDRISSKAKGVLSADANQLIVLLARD

Compound: OC[C@@H]1[C@@H](O)[C@H](O)[C@H](O)c2nccn21 [mannoimidazole]
- X-ray crystal structure, 2.3 Å: solved in complex with the mannosidase inhibitor mannoimidazole (ManI; PDB entry 7nsn
